Source: patent US20180228780A1, “3-(1H-PYRROLO[2,3-C]PYRIDIN-2-YL)-1H-INDAZOLES AND THERAPEUTIC USES THEREOF” (Samumed, LLC, priority 2015, published 2018)

Columns and labels:
Assay type in all cases: cell-based
[1] = system: Wnt activity (Sp5-Luc reporter, SW480 colon carcinoma cells); test: Screening assay for Wnt activity: Sp5-Luc reporter gene assay in SW480 cells; conditions: Homo sapiens; for EC50: SW480 Sp5-Luc reporter, overnight incubation; for inhibition at 10 µM: SW480, read-out: percent inhibition at 10 μM
Source text: The screening assay for Wnt activity is described as follows. Reporter cell lines can be generated by stably transducing cancer cell lines (e.g., colon cancer) or primary cells (e.g., IEC-6 intestinal cells) with a lentiviral construct that includes a Wnt-responsive promoter driving expression of the firefly luciferase gene.
SW480 colon carcinoma cells were transduced with a lentiviral vector expressing luciferase with a human Sp5 promoter consisting of a sequence of eight TCF/LEF binding sites. SW480 cells stably expressing the Sp5-Luc reporter gene and a hygromycin resistance gene were selected by treatment with 150 μg/mL of hygromycin for 7 days. These stably transduced SW480 cells were expanded in cell culture and used for all further screening activities. […] For Sp5-Luc reporter gene assays, the cells were plated at 4,000 cells/well in 384-well plates with medium containing 1% fetal bovine serum and incubated overnight at 37° C. and 5% CO2. Following incubation, 20 μl of BrightGlo luminescence reagent (Promega) was added to each well of the 384-well assay plates. The plates were placed on an orbital shaker for 2 min and then luminescence was quantified using the Envision (Perkin Elmer) plate reader. Readings were normalized to DMSO only treated cells, and normalized activities were utilized for EC50 calculations using the dose-response log (inhibitor) vs. response-variable slope (four parameters) nonlinear regression feature available in GraphPad Prism 5.0 (or Dotmatics).

[2] = system: SW480 colon cancer cells; test: Cell viability assay (CellTiter-Blue) in SW480 colon cancer cells; conditions: Homo sapiens; for EC50: 96 h, SW480 cell viability, four days incubation; for inhibition at 10 µM: SW480, read-out: percent inhibition at 10 μM
Protocol: Representative compounds were screened using the following assay procedure to assess the effect on cell viability as described below.
Approximately 2×10^3 SW480 colon cancer cells were seeded into each well and allowed to incubate in the presence or absence of compound for four days at 37° C./5% CO2. Eight replicates of DMSO-treated cells served as controls and cells treated with compound were performed in duplicate.
After incubation, 20 μL of CellTiter-Blue (Promega) was added to each well allowed to incubate for approximately 3 hours. This reagent was a buffered solution which contains resazurin, metabolically active cells were able to reduce rezarurin (blue) into resorufin (pink) which was highly fluorescent. This measured fluorescence was used as a readout for cell viability.

[3] = system: Primary human fibroblasts derived from IPF patients (LL29 cells); test: Inhibition of the fibrotic process: αSMA staining in TGF-β1-treated LL29 fibroblasts; conditions: Fibroblast; for EC50: 96 h, LL29 cells, TGF-β1 20 ng/mL, 4 days, % αSMA-positive cells
Source text: Representative compounds were screened using primary human fibroblasts (derived from IFF patients) treated with TGF-β1 to determine their ability to inhibit the fibrotic process.
K. L., et.al., “RhoA signaling modulates cyclin D1 expression in human lung fibroblasts; implications for idiopathic pulmonary fibrosis”, Respiratory Research (2006), 7(1), 88] were obtained from American Type Culture Collection (ATCC) and expanded in F12 medium supplemented with 15% Fetal Bovine Serum and Penicillin/Streptomycin.
LL29 cells are plated at 1,500 cells/well in 80 μL/well F12 medium supplemented with 1% Fetal Bovine Serum. […] Wells treated with TGF-β1 and containing DMSO were used as controls. […] Following incubation for 4 days, SYTOX green nucleic acid stain (Life Technologies [Thermo Fisher Scientific]) was added to the wells at a final concentration of 1 μM and incubated at room temperature for 30 min.

[4] = system: primary human mesenchymal stem cells (hMSCs); test: Induction of chondrogenesis in hMSCs (nodule imaging, Rhodamine B / Nile Red); conditions: 6 days, relative to TGF-β3 (10 ng/mL) positive control, read-out: Max. Activity as % TGF-β3 activity
Source text: Representative compounds were screened using primary human mesenchymal stem cells (hMSCs) to determine their ability to induce chondrogenesis (process by which cartilage is developed).
Primary human mesenchymal stem cells (hMSCs) were purchased from Lonza (Walkersville, Md.) and expanded in Mesenchymal Stem Cell Growth Media (Lonza). Cells between passage 3 and 6 were used for the experiments.
Area of nodules in each well was normalized to the average of 3 DMSO treated wells on the same plate using Excel (Microsoft Inc.). The normalized averages (fold change over DMSO) of 2 or 3 replicate wells for each compound concentration were calculated. Due to solubility limitations of some of the compounds, curve fitting was incomplete leading to inaccurate EC50 determinations.
Using TGF-β3 as a positive control, the concentration of representative compounds required to induce 50% levels of chondrogenesis is reported. In addition, the maximum activity of each compound and the respective dose that each compound reached maximum chondrogenesis activity is reported.

[5] = system: IL-6 (THP-1 cells); test: IL-6 inhibition in THP-1 monocytes (HTRF); conditions: Homo sapiens; for EC50: IL-6 inhibition, THP-1 cells, HTRF, 10-point dose-response starting from 10 μM; for inhibition at 10 µM: THP-1, read-out: percentage in parentheses printed under EC50 >10
Protocol: Compound Screening: THP-1 cells were cultured in basal media with 1% FBS for 24 hours before the start of the assay. […] THP-1 cells were plated at 5000 cells/well in the 384-well plates and incubated at 37° C. for 2 h. 500 ng/mL of […] was added after 2 hours and cells were incubated for another 22 hours at 37° C. Plates were spun in a centrifuge for 1 minute at 10,000 rpm and a mixture of anti-IL6 XL665, and anti-IL6 Cryptate diluted in reconstitution buffer (Cisbio Inc.) was added to each well. Following incubation for 3 hrs at room temperature, Homogeneous Time-Resolved Fluorescence (HTRF) was measured using the Envision (Perkin Elmer) at 665 nm and […]. The ratio of fluorescence at 665 nm to 620 nm was used as a readout for IL6 quantification. All samples were processed in duplicate. Readings were normalized to DMSO treated cells and normalized activities were utilized for EC50 calculations using the dose-response log (inhibitor) vs. response-variable slope (four parameters) nonlinear regression feature available in GraphPad Prism 5.0 (or Dotmatics).

Row | EC50 [1] [nM] | EC50 [2] [nM] | EC50 [5] [nM] | Compound | EC50 [3] [nM] | Emax [4] [%] | inhibition at 10 µM [1] [%] | inhibition at 10 µM [2] [%] | inhibition at 10 µM [5] [%] | inhibition at 10 µM ([3]; read-out: percent inhibition at 10 μM) [%]
1 | 1460 | 1390 | 31 | c1cc2cc(-c3n[nH]c4ccc(-c5cncc(CNCC6CCCC6)c5)cc34)[nH]c2cn1 [Compound 277, 1-(5-(3-(1H-Pyrrolo[2,3-c]pyridin-2-yl)-1H-indazol-5-yl)pyridin-3-yl)-N-(cyclopentylmethyl)methanamine] | 1390 | 49 |  |  |  | 
2 | 680 | 702 | 6910 | CC(C)(C)C(=O)Nc1cncc(-c2ccc3[nH]nc(-c4cc5c(-c6ccc(F)cc6)cncc5[nH]4)c3c2)c1 [Compound 36, N-(5-(3-(4-(4-Fluorophenyl)-1H-pyrrolo[2,3-c]pyridin-2-yl)-1H-indazol-5-yl)pyridin-3-yl)pivalamide] | 1090 |  |  |  |  | 
3 | 240 | 302 | 171 | O=C(Nc1cncc(-c2ccc3[nH]nc(-c4cc5c(-c6ccc(F)cc6)cncc5[nH]4)c3c2)c1)C1CCC1 [Compound 49, N-(5-(3-(4-(4-Fluorophenyl)-1H-pyrrolo[2,3-c]pyridin-2-yl)-1H-indazol-5-yl)pyridin-3-yl)cyclobutanecarboxamide] | 135 |  |  |  |  | 
4 | 738 | 2810 | 306 | NC1CN(c2cncc(-c3ccc4[nH]nc(-c5cc6c(N7CCCCC7)cncc6[nH]5)c4c3)n2)C1 [Compound 606, 1-(6-(3-(4-(Piperidin-1-yl)-1H-pyrrolo[2,3-c]pyridin-2-yl)-1H-indazol-5-yl)pyrazin-2-yl)azetidin-3-amine] | 486 |  |  |  |  | 
5 | 626 | 812 | 263 | CC(C)C(=O)Nc1cncc(-c2ccc3[nH]nc(-c4cc5c(-c6ccccc6F)cncc5[nH]4)c3c2)c1 [Compound 65, N-(5-(3-(4-(2-Fluorophenyl)-1H-pyrrolo[2,3-c]pyridin-2-yl)-1H-indazol-5-yl)pyridin-3-yl)isobutyramide] | 1250 |  |  |  |  | 
6 | 1240 | 1220 | 6420 | O=C(Nc1cncc(-c2ccc3[nH]nc(-c4cc5c(-c6ccccc6F)cncc5[nH]4)c3c2)c1)C1CCCC1 [Compound 78, N-(5-(3-(4-(2-Fluorophenyl)-1H-pyrrolo[2,3-c]pyridin-2-yl)-1H-indazol-5-yl)pyridin-3-yl)cyclopentanecarboxamide] | 1410 |  |  |  |  | 
7 | > 10000 | > 10000 | > 10000 | O=C(Cc1ccccc1)Nc1cncc(-c2ccc3[nH]nc(-c4cc5c(-c6ccncc6)cncc5[nH]4)c3c2)c1 [Compound 122] | 1470 |  | 21 | 8.6 | 47.8 | 
8 | 1730 | 3440 | 397 | CCCCC(=O)Nc1cncc(-c2ccc3[nH]nc(-c4cc5c(-c6cc(F)cc(CNS(C)(=O)=O)c6)cncc5[nH]4)c3c2)c1 [Compound 495, N-(5-(3-(4-(3-Fluoro-5-(methylsulfonamidomethyl)phenyl)-1H-pyrrolo[2,3-c]pyridin-2-yl)-1H-indazol-5-yl)pyridin-3-yl)pentanamide] | > 10000 |  |  |  |  | 3.3
9 | 759 | 1650 | 130 | CC(C)Nc1cncc(-c2ccc3[nH]nc(-c4cc5c(-c6cc(F)cc(CNS(C)(=O)=O)c6)cncc5[nH]4)c3c2)c1 [Compound 488, N-(3-Fluoro-5-(2-(5-(5-(isopropylamino)pyridin-3-yl)-1H-indazol-3-yl)-1H-pyrrolo[2,3-c]pyridin-4-yl)benzyl)methanesulfonamide] | 2220 |  |  |  |  | 
10 | > 10000 | > 10000 | 1630 | O=C(Nc1cncc(-c2ccc3[nH]nc(-c4cc5c(-c6ccncc6)cncc5[nH]4)c3c2)c1)C1CCCCC1 [Compound 135, N-(5-(3-(4-(Pyridin-4-yl)-1H-pyrrolo[2,3-c]pyridin-2-yl)-1H-indazol-5-yl)pyridin-3-yl)cyclohexanecarboxamide] | 9980 |  | 20.8 | 6.1 |  | 
11 | 1290 | 1060 | 177 | c1ccc(-c2ccc3[nH]nc(-c4cc5c(-c6ccncc6)cncc5[nH]4)c3c2)nc1 [Compound 140, 5-(Pyridin-2-yl)-3-(4-(pyridin-4-yl)-1H-pyrrolo[2,3-c]pyridin-2-yl)-1H-indazole] | 750 |  |  |  |  | 
12 | 200 | 282 | 87 | CCCC(=O)Nc1cncc(-c2ccc3[nH]nc(-c4cc5c(-c6cccc(F)c6)cncc5[nH]4)c3c2)c1 [Compound 17, N-(5-(3-(4-(3-Fluorophenyl)-1H-pyrrolo[2,3-c]pyridin-2-yl)-1H-indazol-5-yl)pyridin-3-yl)butyramide] | 254 |  |  |  |  | 
13 | 730 | 693 | 1100 | CC(C)(C)CC(=O)Nc1cncc(-c2ccc3[nH]nc(-c4cc5c(-c6ccccc6F)cncc5[nH]4)c3c2)c1 [Compound 72, N-(5-(3-(4-(2-Fluorophenyl)-1H-pyrrolo[2,3-c]pyridin-2-yl)-1H-indazol-5-yl)pyridin-3-yl)-3,3-dimethylbutanamide] | 593 |  |  |  |  | 
14 | 2150 | 2010 | > 10000 | CS(=O)(=O)NCc1cc(F)cc(-c2cncc3[nH]c(-c4n[nH]c5ccc(-c6cncc(OCc7ccccc7)c6)cc45)cc23)c1 [Compound 774, N-(3-(2-(5-(5-(Benzyloxy)pyridin-3-yl)-1H-indazol-3-yl)-1H-pyrrolo[2,3-c]pyridin-4-yl)-5-fluorobenzyl)methanesulfonamide] | 1490 |  |  |  | 45 | 
15 | 1120 | 1980 | 4450 | c1ncc(-c2ccc3[nH]nc(-c4cc5c(N6CCCCC6)cncc5[nH]4)c3c2)cc1OC1CCCCC1 [Compound 607, 5-(5-(Cyclohexyloxy)pyridin-3-yl)-3-(4-(piperidin-1-yl)-1H-pyrrolo[2,3-c]pyridin-2-yl)-1H-indazole] | 647 |  |  |  |  | 
16 | 1330 | 1360 | 1090 | c1cc(-c2ccc3[nH]nc(-c4cc5c(-c6ccsc6)cncc5[nH]4)c3c2)ccn1 [Compound 298, 5-(Pyridin-4-yl)-3-(4-(thiophen-3-yl)-1H-pyrrolo[2,3-c]pyridin-2-yl)-1H-indazole] | 716 |  |  |  |  | 
